According to ChEMBL document CHEMBL1140887, “Synthesis of novel 1,4-benzoxazin-3-one derivatives as inhibitors against tyrosine kinases” (Bioorg Med Chem, 2009):

Legend:
[1] = biological target: Tyrosine-protein kinase ABL1 (Homo sapiens, UniProt P00519); experiment: Inhibition of ABL expressed in baculovirus system by ELISA
[2] = biological target: T1, Vascular endothelial growth factor receptor 2 (Homo sapiens, UniProt P35968); experiment: Inhibition of KDR expressed in baculovirus system at 4 ug/ml by ELISA
[3] = biological target: T1, Vascular endothelial growth factor receptor 2; experiment: Inhibition of KDR expressed in baculovirus system by ELISA

T1 sequence (P35968 whole entry): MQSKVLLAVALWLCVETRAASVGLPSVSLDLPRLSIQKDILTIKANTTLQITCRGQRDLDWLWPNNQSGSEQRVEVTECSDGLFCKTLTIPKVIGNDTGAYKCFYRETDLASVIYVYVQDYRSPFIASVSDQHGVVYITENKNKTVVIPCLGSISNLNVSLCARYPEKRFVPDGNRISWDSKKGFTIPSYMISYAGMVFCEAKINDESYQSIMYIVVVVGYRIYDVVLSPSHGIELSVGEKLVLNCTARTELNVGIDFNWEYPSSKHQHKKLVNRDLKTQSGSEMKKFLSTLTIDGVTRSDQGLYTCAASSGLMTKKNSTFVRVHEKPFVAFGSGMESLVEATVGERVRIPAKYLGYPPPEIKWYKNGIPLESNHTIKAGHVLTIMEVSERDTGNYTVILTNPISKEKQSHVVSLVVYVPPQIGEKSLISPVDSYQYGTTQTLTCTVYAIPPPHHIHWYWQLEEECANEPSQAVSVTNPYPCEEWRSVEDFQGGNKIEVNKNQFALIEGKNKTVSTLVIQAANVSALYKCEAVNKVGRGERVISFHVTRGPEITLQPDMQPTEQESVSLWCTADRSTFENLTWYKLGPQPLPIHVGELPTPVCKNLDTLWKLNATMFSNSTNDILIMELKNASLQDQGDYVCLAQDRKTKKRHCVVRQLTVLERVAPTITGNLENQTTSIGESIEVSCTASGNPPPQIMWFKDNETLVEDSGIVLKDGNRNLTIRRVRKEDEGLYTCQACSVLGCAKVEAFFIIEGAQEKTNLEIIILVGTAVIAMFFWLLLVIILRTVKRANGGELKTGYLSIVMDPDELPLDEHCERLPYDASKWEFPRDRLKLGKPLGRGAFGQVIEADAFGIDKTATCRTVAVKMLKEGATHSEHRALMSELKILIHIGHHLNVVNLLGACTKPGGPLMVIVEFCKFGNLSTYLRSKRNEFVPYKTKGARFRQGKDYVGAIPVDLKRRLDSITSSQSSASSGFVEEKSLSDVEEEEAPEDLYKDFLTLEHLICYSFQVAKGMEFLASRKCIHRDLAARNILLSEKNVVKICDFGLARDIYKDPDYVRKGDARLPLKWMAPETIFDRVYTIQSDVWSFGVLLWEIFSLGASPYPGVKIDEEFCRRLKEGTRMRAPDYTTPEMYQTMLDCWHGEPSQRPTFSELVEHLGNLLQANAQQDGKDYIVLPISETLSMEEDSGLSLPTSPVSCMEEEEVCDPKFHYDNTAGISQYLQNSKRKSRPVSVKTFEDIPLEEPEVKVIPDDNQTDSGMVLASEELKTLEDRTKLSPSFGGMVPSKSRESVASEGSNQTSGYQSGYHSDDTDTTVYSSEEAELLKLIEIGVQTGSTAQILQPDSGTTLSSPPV
Sequence of Tyrosine-protein kinase ABL1 (P00519 whole entry): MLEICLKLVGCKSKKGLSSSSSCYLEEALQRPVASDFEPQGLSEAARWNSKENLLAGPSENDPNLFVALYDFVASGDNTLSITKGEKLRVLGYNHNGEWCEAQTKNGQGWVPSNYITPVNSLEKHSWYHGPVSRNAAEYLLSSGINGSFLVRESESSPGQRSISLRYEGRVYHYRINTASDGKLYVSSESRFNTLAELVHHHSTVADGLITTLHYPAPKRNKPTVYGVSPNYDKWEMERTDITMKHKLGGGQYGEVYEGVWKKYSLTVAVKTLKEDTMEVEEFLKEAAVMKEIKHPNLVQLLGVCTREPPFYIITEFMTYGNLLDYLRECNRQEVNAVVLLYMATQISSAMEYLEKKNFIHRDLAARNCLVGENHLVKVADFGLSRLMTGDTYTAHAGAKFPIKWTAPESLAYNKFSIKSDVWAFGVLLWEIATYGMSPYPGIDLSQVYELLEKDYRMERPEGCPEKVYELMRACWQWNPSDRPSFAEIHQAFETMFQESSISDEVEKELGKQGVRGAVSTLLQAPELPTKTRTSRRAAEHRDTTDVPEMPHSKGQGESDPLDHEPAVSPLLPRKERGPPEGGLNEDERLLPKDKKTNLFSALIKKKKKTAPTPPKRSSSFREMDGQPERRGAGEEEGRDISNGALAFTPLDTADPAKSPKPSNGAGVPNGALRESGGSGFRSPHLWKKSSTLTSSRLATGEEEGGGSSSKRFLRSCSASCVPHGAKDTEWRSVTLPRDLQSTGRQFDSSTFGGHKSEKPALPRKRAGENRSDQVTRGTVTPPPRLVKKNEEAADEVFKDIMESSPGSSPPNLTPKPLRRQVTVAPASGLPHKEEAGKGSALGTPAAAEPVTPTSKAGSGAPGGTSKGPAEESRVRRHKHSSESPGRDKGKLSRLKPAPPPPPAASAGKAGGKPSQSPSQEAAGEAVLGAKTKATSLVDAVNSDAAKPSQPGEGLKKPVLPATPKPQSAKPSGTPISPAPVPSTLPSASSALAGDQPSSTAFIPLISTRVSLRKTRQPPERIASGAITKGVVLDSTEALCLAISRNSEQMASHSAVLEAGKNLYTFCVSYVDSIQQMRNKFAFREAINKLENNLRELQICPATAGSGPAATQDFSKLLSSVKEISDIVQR

Row | Compound | IC50 [1] | inhibition [2] | IC50 [3]
1 | CN1C(=O)/C(=C/c2ccc(/C=C/C(=O)NCc3cccnc3)s2)Oc2ccccc21 | 1.9 µM | 76.7% | 1.48 µM
2 | CN1C(=O)/C(=C/c2cccc(/C=C/C(=O)Nc3ccc(N4CCOCC4)cc3)c2)Oc2ccccc21 | – | 79.9% | –
3 | CN1C(=O)/C(=C/c2ccc(/C=C/C(=O)N3CCN(CCO)CC3)s2)Oc2ccccc21 | – | 88.3% | –
4 | O=C(/C=C/c1cccc(/C=C2\Oc3ccccc3NC2=O)c1)NCc1ccccn1 | > 1.01 µM | – | –
5 | CN(C)CCNC(=O)/C=C/c1ccc(/C=C2\Oc3ccccc3N(C)C2=O)s1 | 0.82 µM | 83.9% | –
6 | O=C(/C=C/c1ccc(/C=C2\Oc3ccccc3NC2=O)s1)NCc1ccccn1 | > 0.991 µM | – | –
7 | CN1C(=O)/C(=C/c2ccc(/C=C/C(=O)NCc3ccncc3)s2)Oc2ccccc21 | 1.76 µM | 77.1% | –

Next, values leading:

Row | IC50 [1] | inhibition [2] | IC50 [3] | Compound
8 | – | 76.7% | – | O=C1Nc2ccccc2O/C1=C\c1ccc(/C=C/C(=O)N2CCN(CCO)CC2)o1
9 | – | 79.2% | – | CN1C(=O)/C(=C/c2ccc(/C=C/C(=O)N3CCCC3)s2)Oc2ccccc21
10 | > 1.14 µM | – | – | O=C1Nc2ccccc2O/C1=C\c1ccc(/C=C/C(=O)N2CCCC2)o1
11 | – | 70.8% | – | CN(C)CCNC(=O)/C=C/c1cccc(/C=C2\Oc3ccccc3NC2=O)c1
12 | > 1.09 µM | – | – | O=C1Nc2ccccc2O/C1=C\c1cc(/C=C/C(=O)N2CCCC2)cs1
13 | 0.29 µM | – | – | O=C(/C=C/c1ccc(/C=C2\Oc3ccccc3NC2=O)s1)Nc1ccc(N2CCOCC2)cc1
14 | > 1.04 µM | – | – | CN(C)CCNC(=O)/C=C/c1csc(/C=C2\Oc3ccccc3NC2=O)c1
